US9475789B2, “Use of polyenylpyrrole derivatives for treating inflammation” (WELLHEAD BIOLOGICAL TECHNOLOGY CORP., priority 2014, dated 2016)

What was measured:
Format in all cases: cell-based, murine
PKC-α = test: Western blot of PKC-α phosphorylation, ATP-activated LPS-primed J774A.1 macrophages; conditions: compound 1h 20 μM
Description: (§1) In (A), J774A.1 macrophages (1×10^6/ml) were incubated with LPS (1 μg/ml) for 5.5 h and then incubated with compound 1 h ([…]), DPI (100 μM), or DMSO (vehicle) for 30 min followed by ATP (5 mM) stimulating for the indicated time, then ROS levels were measured by detection of the fluorescence intensity of the fluorophore carboxyl-DCF and expressed relative to those at time zero. In (B), J774A.1 macrophages (1×10^6/ml) were incubated with compound 1h (20 μM), DPI (100 μM), or DMSO (vehicle) for 30 min followed by LPS (1 μg/ml) stimulating for 5.5 h, then the cells were stimulated with ATP (5 mM) for the indicated time. The ROS levels were measured by detection of the fluorescence intensity of the fluorophore carboxyl-DCF and expressed relative to those at time zero. In (C), LPS-primed J774A.1 macrophages (1×10^6/ml) were incubated with compound 1h (20 μM) or DMSO (vehicle) for 30 min followed by ATP (5 mM) stimulating for 0-60 min, then the phosphorylation level of PKC-α was analyzed by Western blot.
Whole cell lysates were separated by SDS-PAGE and electrotransferred to a PVDF membrane. The membranes were incubated in blocking solution—5% nonfat milk in phosphate buffered saline with 0.1% Tween 20—at room temperature for 1 h. Each membrane was incubated with a specific primary antibody at room temperature for 2 h. […]

IL-6 = IL-6 ELISA, LPS-activated JAWSII dendritic cells; conditions: LPS 1 μg/ml 24 h
Description: (A) J774A.1 macrophages (4×10^5/ml), (B) peritoneal macrophages (4×10^5/ml), and (C) JAWSII dendritic cells (4×10^5/ml) were incubated with compound 1h or DMSO for 30 min followed by stimulating with LPS (1 μg/ml) for 24 h, then IL-6 and TNF-α concentration in culture medium were assayed by ELISA. The data are expressed as the mean±SD for three separate experiments. *, **, and *** indicate a significant difference at the level of p<0.05, p<0.01, p<0.001 respectively compared to LPS group.
The effects of tested samples on IL-1β, TNF-α and IL-6 production were measured by ELISA according to the manufacturer's instruction. In brief, 50 μl of biotinylated antibody reagent and 50 μl of supernatant were added to an anti-mouse IL-1β, TNF-α and IL-6 precoated stripwell plate, and incubated at room temperature for 2 h. After washing the plate three times with washing buffer, 100 μl of diluted streptavidin-HRP concentrate was added to each well and incubated at room temperature for 30 min. The washing process was repeated; then 100 μl of a premixed tetramethylbenzidine substrate solution was added to each well and developed at room temperature in the dark for 30 min. Following the addition of 100 μl of stop solution to each well to stop the reaction, the absorbance of the plate was measured by a microplate reader at 450 nm wavelength.

ROS = test: Intracellular ROS production, ATP-activated J774A.1 macrophages
Description: as §1
Intracellular ROS stimulated by LPS was measured by detecting the fluorescence intensity of the 2′,7′-dichlorofluorescein diacetate (H2DCFDA) oxidized product (DCF) (Molecular Probes, Eugene, Oreg.). […]

O=c1cc(O)cc(/C=C/C=C/C=C/C=C/c2[nH]ccc2Cl)o1 [Compound 1h]
ATP-induced PKC-α phosphorylation (PKC-α): inhibited | secretion of IL-6 (IL-6): also reduced | ATP-induced ROS production (ROS; J774A.1, compound 1h 20 μM added before LPS priming): inhibited ATP-induced ROS production significantly | ATP-induced ROS production (ROS; LPS-primed J774A.1, compound 30 min before ATP stimulation): reduces ATP-induced ROS production slightly
